Laboratory results published in PubChem BioAssay AID1902 (Broad Institute, 2009).
The source made the active and inactive calls.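 Rule for the calls: active = EC50 no more than a set limit of log units above the highest dose; inactive = the rest.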

Target: S. pyogenes SKKanGAS, kanamycin survival, BacTiterGlo, 6 h
Test: SKKanGAS survival reduction under kanamycin, dose response, streptokinase promoter inhibitor project, SKKanGAS strain, luminescence, dose confirmation (AID 1902);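 note: lower survival reflects blocked streptokinase promoter driving kanamycin resistance gene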

Row | Compound | EC50
1 | Cc1c(C)n(Cc2ccc(F)cc2)c2ccc(C(=O)N3CCN(c4ccccn4)CC3)cc12 | 6.11 µM
2 | Oc1ccccc1/C=N/NC(=S)NC1CC2C=CC1C2 (stereo not drawn) | 5.69 µM
3 | COc1ccc(O)c(C(=O)CC(=O)c2ccccc2C)c1 | 4.76 µM
4 | O=c1c2c(nc3c(-c4ccc(Cl)cc4)c[nH]n13)CCCC2 | 4.55 µM
5 | Cc1ccc2nc(/N=C(\N)NC(=O)NC3CCCCC3)nc(C)c2c1 | 1.15 µM
6 | O=C(O)CCCN1C(=O)/C(=C\c2ccc(-c3nc4ccccc4s3)o2)SC1=S | 4.89 µM
7 | COC(=O)C1=NN(C(=O)c2cccc(Br)c2)C(O)(c2ccc(Cl)cc2)C1 (stereo not drawn) | 1.29 µM
8 | O=C(N/N=C/c1c(O)n(C2CCCCC2)c(=S)[nH]c1=O)c1ccccc1 | 0.659 µM
9 | O=C(Nc1ncc(Cc2ccccc2)s1)c1cccs1 | 1.9 µM
10 | CCOC(=O)c1c(-c2ccc(OC)cc2)csc1/N=C/C1=C(O)CCCC1=O | 14.5 µM
11 | O=C(NC(=S)Nc1ccc(Cl)cn1)C(c1ccccc1)c1ccccc1 | 3.43 µM
12 | C/C(=N/NS(=O)(=O)c1ccc(Cl)cc1)c1cccc(NC(=O)c2ccc(Cl)cc2Cl)c1 | 4.79 µM
13 | O=C1c2cccc3cccc(c23)C(=O)N1CC1CCN(CC(O)COc2ccc3ccccc3c2)CC1 (stereo not drawn) | 6.84 µM
14 | COc1ccc(-c2c(C(F)(F)F)[nH]n3c(=O)cc(-c4ccccc4)nc23)cc1 | 4.73 µM
15 | S=c1[nH]nc(-c2cc3c(s2)-c2ccccc2CC3)o1 | 3.87 µM
16 | O=c1c2cc(Br)ccc2nc(-c2cccc(Cl)c2)n1O | 1.09 µM
17 | COc1ccc(-c2nnc(NC(=O)c3ccc(S(=O)(=O)N4CCCc5ccccc54)cc3)o2)cc1 | 0.149 µM
18 | Oc1ccc(Oc2ccc(Oc3ccc(O)cc3)cc2)cc1 | 5.25 µM
19 | O=c1c2cc(-c3ccccc3)sc2nc2n1CCC2 | 7.67 µM
20 | COc1ccccc1/C=N\Nc1cc(C)nc(-n2nc(C)cc2C)n1 | 6.26 µM
21 | COc1ccc(NC(=O)CSc2nc3nc(-c4cccs4)cc(C(F)(F)F)c3c(=O)[nH]2)c(OC)c1 | 7.42 µM
22 | CC(=O)N(CCC(Cc1ccccc1)c1ccc2c(c1)OCO2)Cc1ccc(Cl)cc1 (stereo not drawn) | 3.42 µM

Row | Compound | EC50
23 | COc1ccc(CNC(=O)Cc2csc(NC(=O)Nc3ccccc3OC)n2)cc1 | 15 µM
24 | Cc1ccc(C(=O)Nc2nnc(C3=COCCO3)o2)cc1C | 2.96 µM
25 | CC(C)c1ccc(-n2c(O)c(/C=N/NC(=O)c3ccccc3O)c(=O)[nH]c2=S)cc1 | 7 µM
26 | Cc1ccc(O)c(/C=N/NC(=O)Cc2ccc(Cl)cc2)c1 | 2.78 µM
27 | CN(C)[C@@H]1C(=O)C(C(N)=O)=C(O)[C@@]2(O)C(=O)C3=C(O)c4c(O)cccc4[C@@](C)(O)C3C[C@@H]12 (stereo partly drawn) | 0.096 µM
28 | COc1cc(/C=N/NC(=O)c2nnn(-c3nonc3N)c2C(C)C)ccc1OCc1ccc(F)cc1 | 11.3 µM
29 | CCOC(=O)c1cnc(-n2nc(C)cc2C)nc1NNc1cc(C)nc(-c2ccccc2)n1 | 0.237 µM
30 | Cc1ccc2[nH]c(C(=O)N/N=C/c3ccccc3O)c(C)c2c1 | 1.67 µM
31 | COc1ccc(C(=O)CSc2nnc(CNC(=O)c3ccc(S(=O)(=O)N(C)C)cc3)o2)cc1 | > 15 µM (inactive)
32 | CCCCc1ccc(NC(=S)NCCc2ccc(F)cc2)cc1 | 5.7 µM
33 | CCCc1ccc(-c2cc(C(=O)N/N=C/c3ccc([N+](=O)[O-])o3)c3ccccc3n2)cc1 | 1.74 µM
34 | CCc1noc(C)c1C(=O)OCC(=O)NC(=O)c1ccccc1 | > 15 µM (inactive)
35 | COc1ccc(/C=C/C(=O)NC(=S)NNC(=O)c2cnccn2)cc1 | 5.92 µM
36 | CCOc1cc(/C=N/Nc2cc(C)nc(-n3nc(C)cc3C)n2)ccc1O | 0.853 µM
37 | COc1ccc2nc(Nc3nc4cc5c(cc4s3)OCO5)sc2c1 | 1.02 µM
38 | S=C1NC(C23CC4CC(CC(C4)C2)C3)=CC(c2ccc3c(c2)OCO3)N1 (stereo not drawn) | 6.76 µM
39 | CC1CCN(c2ccccc2NC(=O)c2ccc(Br)o2)CC1 | 5.29 µM
40 | COc1ccc(CN2C(=O)c3ccccc3C(/C=N\OCc3ccc(C)cc3)C2=O)cc1 (stereo not drawn) | 1.29 µM
41 | Cc1n[nH]c(C)c1CCOc1ccc(C(C)C)cc1 | 11.2 µM
42 | COc1cccc(/C=C/C(=O)OCC(=O)Nc2nnc(-c3ccccc3)o2)c1 | 4.21 µM
43 | Cc1ccc2nc(N/C(=N/S(=O)(=O)c3ccc(F)cc3)c3ccccc3)sc2c1 | 6.17 µM
